Source: ChEMBL document CHEMBL5614404, “Optimization of potent, broad-spectrum, and specific anti-influenza compounds targeting RNA polymerase PA-PB1 heterodimerization” (Eur J Med Chem, 2024)
Values after ≈ are worked out from the molar mass of the structure shown. Active and inactive are the calls of the source. The calls are words filed in the database; no cut-off is given here.

What was measured:
Influenza A virus [1] = assay: Antiviral activity against Amantadine/Oseltamivir-sensitive Influenza A virus Solomon Islands/03/2006 (H1N1) infected in MDCK cells by plaque reduction assay; format: functional, organism-based
[2] = Inhibition of heterodimerization of C-terminal His-tagged Influenza virus PA (239 to 716 residues)/N-terminal GST-tagged Influenza virus PB1 (1 to 25 residues) incubated overnight by ELISA; design: species or system unidentified influenza virus
Influenza B virus [3] = assay: Antiviral activity against Influenza B virus Brisbane/60/2008 infected in MDCK cells by plaque reduction assay; format: functional, organism-based; details: Brisbane/60/2008, MDCK
[4] = Cytotoxicity against MDCK cells by Neutral red uptake assay; format: toxicity, cell-based, Canis lupus familiaris; details: dog
[5] = Cytotoxicity against MDCK cells incubated for 48 hrs by MTT assay; format: toxicity, cell-based, Canis lupus familiaris; details: dog
[6] = Inhibition of 6His-tagged Influenza virus PA (239 to 716 residues) extracted from Escherichia coli BL21(DE3)pLysS/GST-tagged Influenza virus PB1 (1 to 25 residues) by ELISA; design: species or system unidentified influenza virus
Influenza A virus [7] = assay: Antiviral activity against Influenza A virus PR/8/34 infected in MDCK cells incubated for 48 hrs by plaque reduction assay; format: functional, organism-based; details: Influenza A virus, PR/8/34, MDCK, 48 h
[8] = Selectivity index, ratio of CC50 for MDCK cells to EC50 for Influenza A virus PR/8/34 infected in MDCK cells; format: toxicity, cell-based; details: dog, read-out: Ratio CC50/EC50
HEK293T = assay: Inhibition of heterodimerization of Influenza virus GFP-fused PA/PB1 transfected in HEK293T cells assessed as impaired nuclear import at 0.5 uM incubated for 14 hrs by CLSM analysis; format: cell-based; details: unidentified influenza virus
[9] = Cytotoxicity against HEK293T cells incubated for 48 hrs by MTT assay; format: toxicity, cell-based, HEK-293T; details: human
[10] = tested on: unidentified influenza virus; assay: Thermal stabilization of C-terminal 6His-tagged Influenza virus PA (239 to 716 residues) extracted from Escherichia coli BL21(DE3)pLysS/N-terminal Influenza virus PB1 (1 to 25 residues) assessed as shift in melting temperature by nano-DSF assay
Influenza A virus [11] = assay: Antiviral activity against Influenza A virus PR/8/34 (H1N1) infected in MDCK cells incubated for 48 hrs by plaque reduction assay; format: functional, organism-based
Influenza A virus [12] = assay: Antiviral activity against Influenza A virus Wisconsin/67/05 (H3N2) infected in MDCK cells incubated for 48 hrs by plaque reduction assay; format: functional, organism-based
Influenza B virus [13] = assay: Antiviral activity against ancestral Influenza B virus Lee/40 infected in MDCK cells incubated for 48 hrs by plaque reduction assay; format: functional, organism-based; details: Lee/40, MDCK
Influenza B virus [14] = assay: Antiviral activity against Influenza B virus Malaysia/2506/04 infected in MDCK cells incubated for 48 hrs by plaque reduction assay; format: functional, organism-based; details: Malaysia/2506/04, MDCK
Dengue virus = assay: Antiviral activity against DENV infected in human Huh-7 cells assessed as inhibition of viral replication; format: functional, organism-based
West Nile virus = assay: Antiviral activity against WNV infected in human Huh-7 cells assessed as inhibition of viral replication; format: functional, organism-based
SARS-CoV-2 = assay: Antiviral activity against SARS CoV-2 infected in human Caco-2 cells assessed as inhibition of viral replication; format: functional, organism-based; details: Severe acute respiratory syndrome coronavirus 2
[15] = (§1) Antiviral activity against HPIV infected in human A549 cells assessed as inhibition of viral replication; format: functional, cell-based
Huh-7 = assay: Cytotoxicity against human Huh-7 cells; format: toxicity, cell-based
Caco-2 = assay: Cytotoxicity against human Caco-2 cells; format: toxicity, cell-based
[16] = (§2) Cytotoxicity against human A549 cells; format: toxicity, cell-based; details: A549 cells
[17] = Thermodynamic solubility in aqueous media incubated for 24 hrs by shake flask method; format: physicochemical; details: read-out: Therm_solubility
[18] = Apparent permeability of compound incubated for 5 hrs by PAMPA; format: ADME
[19] = Permeability of compound assessed as membrane retention incubated for 5 hrs by PAMPA; format: ADME
[20] = Metabolic stability in human liver microsomes assessed as unmetabolized compound at 50 uM incubated for 1 hr in presence of NADPH by UV/LC-MS analysis; format: ADME, Microsome; details: read-out: Stability
[21] = Metabolic stability in rat plasma at 2 mM measured upto 1440 mins by UV/LC-MS analysis; format: ADME, cell-free; details: read-out: Stability
[22] = Binding affinity to RED-NT650-NHS-labeled C-terminal 6His-tagged recombinant Influenza virus PA (239 to 716 residues) extracted from Escherichia coli BL21(DE3)pLysS assessed as dissociation constant by MST assay; design: species or system unidentified influenza virus
A549 [23] = assay: as §1; format: functional, cell-based
A549 [24] = assay: as §2; format: toxicity, cell-based; details: a549
[25] = Metabolic stability in rat plasma at 2 mM measured for 5 to 60 mins by UV/LC-MS analysis; format: ADME, cell-free; details: time 5-60 min, read-out: Stability
[26] = Metabolic stability in rat plasma at 2 mM measured after 1440 mins by UV/LC-MS analysis; format: ADME, cell-free; details: read-out: Stability
[27] = Inhibition of heterodimerization of C-terminal His-tagged Influenza virus PA (239 to 716 residues)/N-terminal GST-tagged Influenza virus PB1 (1 to 25 residues) by ELISA; design: species or system unidentified influenza virus
Influenza A virus [28] = assay: Antiviral activity against Influenza A virus WSN/33 (H1N1) clinical isolate infected in MDCK cells expressing ST6Gal by crystal violet staining based plaque reduction assay; format: functional, organism-based
Influenza A virus [29] = assay: Antiviral activity against Oseltamivir-sensitive Influenza A virus Denmark/524/2009 (H1N1) clinical isolate infected in MDCK cells expressing ST6Gal by crystal violet staining based plaque reduction assay; format: functional, organism-based
Influenza A virus [30] = assay: Antiviral activity against Influenza A virus Switzerland/9715293/2013 (H3N2) clinical isolate infected in MDCK cells expressing ST6Gal by crystal violet staining based plaque reduction assay; format: functional, organism-based
Influenza A virus [31] = assay: Antiviral activity against Influenza A virus Texas/04/2009 (H1N1) clinical isolate infected in MDCK cells expressing ST6Gal by crystal violet staining based plaque reduction assay; format: functional, organism-based
Influenza A virus [32] = assay: Antiviral activity against Influenza A virus Washington/29/2009 (H1N1) clinical isolate infected in MDCK cells expressing ST6Gal by crystal violet staining based plaque reduction assay; format: functional, organism-based
Influenza B virus [33] = assay: Antiviral activity against Influenza B virus Wisconsin/1/2010 clinical isolate infected in MDCK cells expressing ST6Gal by crystal violet staining based plaque reduction assay; format: functional, organism-based; details: Wisconsin/1/2010, MDCK
Influenza B virus [34] = assay: Antiviral activity against Influenza B virus Memphis/20/1996 clinical isolate infected in MDCK cells expressing ST6Gal by crystal violet staining based plaque reduction assay; format: functional, organism-based; details: Memphis/20/1996, MDCK
Influenza B virus [35] = assay: Antiviral activity against Influenza B virus Utah/09/2014 clinical isolate infected in MDCK cells expressing ST6Gal by crystal violet staining based plaque reduction assay; format: functional, organism-based; details: Utah/09/2014, MDCK
Influenza B virus [36] = assay: Antiviral activity against Influenza B virus Phuket/3073/2013 clinical isolate infected in MDCK cells expressing ST6Gal by crystal violet staining based plaque reduction assay; format: functional, organism-based; details: Phuket/3073/2013, MDCK
Influenza B virus [37] = assay: Antiviral activity against Influenza B virus Brisbane/60/2008 clinical isolate infected in MDCK cells expressing ST6Gal by crystal violet staining based plaque reduction assay; format: functional, organism-based; details: Brisbane/60/2008, MDCK
[38] = Cytotoxicity against MDCK cells assessed as reduction in cell viability incubated for 48 hrs by Neutral red uptake assay; format: toxicity, cell-based, Canis lupus familiaris; details: dog

SMILES	CC50 at 48 h [5] [nM]	IC50 [6] [nM]	EC50 (Influenza A virus [7]) [nM]	selectivity ratio [8]	inhibition (HEK293T)	CC50 at 48 h [9] [nM]	Activity [10]	EC50 (Influenza A virus [11]) [nM]	EC50 (Influenza A virus [12]) [nM]	EC50 (Influenza B virus [13]) [nM]	EC50 (Influenza B virus [14]) [nM]	Activity (Dengue virus)	Activity (West Nile virus)	Activity (SARS-CoV-2)	Activity (Huh-7)	Activity (Caco-2)	solubility thermodynamic at 24 h [17] [µM]	Papp at 5 h [18] [×10⁻⁶ cm/s]	Activity [19] [%]	remaining at 1 h, 50 µM [20] [%]	other results
O=C1C(c2ncc([N+](=O)[O-])s2)CC[C@@H]2CCCC[C@@H]12 (some centres undefined)	–	–	–	–	–	–	–	–	–	–	–	–	–	–	–	–	–	–	–	–	EC50 (Influenza A virus [1]): 930 nM; IC50 [2]: 18500 nM; EC50 (Influenza B virus [3]): 930 nM; CC50 [4]: > 300000 nM
O=C(Nc1sc2c(c1C(=O)Nc1ccccc1O)CCCCC2)c1ccc([N+](=O)[O-])cc1O	224000	26500	89	2520	Active	> 50000	Active	89	54	87	88	inactive	inactive	inactive	Non-Toxic	Non-Toxic	49.8 (≈ 23.3 µg/mL)	0.78	2.5	93.8	EC50 [15]: 21700 nM; CC50 [16]: > 40000 nM; remaining at 24 h, 2000 µM [21]: ~100%
N#Cc1ccc(C(=O)Nc2sc3c(c2C(=O)Nc2ccccc2O)CCCCC3)cc1	> 250000	19300	380	> 667	Active	> 50000	Active	380	220	300	350	inactive	inactive	inactive	Non-Toxic	Non-Toxic	17.6 (≈ 7.59 µg/mL)	3.48	57	93.3	Kd [22]: 5750 nM; Activity (A549 [23]): inactive; Activity (A549 [24]): Non-Toxic; remaining at 2000 µM [25]: 95%; remaining at 24 h, 2000 µM [26]: 81%
C[C@@H](c1ccccc1)n1nnnc1[C@H](c1ccsc1)N1CCC(n2c(=O)[nH]c3ccccc32)CC1	–	–	–	–	–	–	–	–	–	–	–	–	–	–	–	–	–	–	–	–	IC50 [27]: 7600 nM; EC50 (Influenza A virus [28]): 600 nM; EC50 (Influenza A virus [29]): 600 nM; EC50 (Influenza A virus [30]): 600 nM; EC50 (Influenza A virus [31]): 600 nM; EC50 (Influenza A virus [32]): 600 nM; EC50 (Influenza B virus [33]): 600 nM; EC50 (Influenza B virus [34]): 600 nM; EC50 (Influenza B virus [35]): 600 nM; EC50 (Influenza B virus [36]): 600 nM; EC50 (Influenza B virus [37]): 600 nM; CC50 at 48 h [38]: > 300000 nM
